# Values joined by “and” are separate entries in the source; they are usually repeats but may differ in a detail not shown here. Identical values can stand only once. Active and inactive are the calls of the source.
# Experiments:
# [1] = molecular target: T1, Sphingosine 1-phosphate receptor 4 (Homo sapiens, UniProt O95977); assay: Late-stage fluorescence dose response cell-based assay to identify agonists of the Sphingosine 1-Phosphate Receptor 4 (S1P4): purchased compounds EC50. [Related pubchem assays (depositor defined):AID1509, AID1523, AID1563, AID1686, AID1701, AID1801]; format: functional
# T1 sequence (O95977 whole entry): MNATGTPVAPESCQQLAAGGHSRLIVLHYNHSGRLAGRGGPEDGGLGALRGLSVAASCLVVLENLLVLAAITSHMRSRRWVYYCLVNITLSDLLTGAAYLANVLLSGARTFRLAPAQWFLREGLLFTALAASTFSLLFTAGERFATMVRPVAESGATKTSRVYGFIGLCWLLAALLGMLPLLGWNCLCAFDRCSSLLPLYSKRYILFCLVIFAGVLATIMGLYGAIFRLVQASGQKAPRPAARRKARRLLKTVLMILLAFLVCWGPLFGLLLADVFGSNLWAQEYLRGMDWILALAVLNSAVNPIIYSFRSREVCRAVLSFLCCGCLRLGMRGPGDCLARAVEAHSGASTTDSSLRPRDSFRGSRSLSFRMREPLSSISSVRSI
# [2] = molecular target: T1, Sphingosine 1-phosphate receptor 4; assay: potency of S1P4 activators – cell-based, fluorescence, synthesized compounds, late-stage follow-up (AID 463107); format: functional
# [3] = molecular target: T2, Kappa-type opioid receptor (Homo sapiens, UniProt P41145); assay: SAR analysis of small molecule antagonists of the kappa opioid receptor via a luminescent beta-arrestin assay - Set 3. [Related pubchem assays (depositor defined):AID1777, AID1778, AID1785, AID1786, AID1966, AID2133, AID2136, AID2285, AID2495]; format: functional
# T2 sequence (P41145 whole entry): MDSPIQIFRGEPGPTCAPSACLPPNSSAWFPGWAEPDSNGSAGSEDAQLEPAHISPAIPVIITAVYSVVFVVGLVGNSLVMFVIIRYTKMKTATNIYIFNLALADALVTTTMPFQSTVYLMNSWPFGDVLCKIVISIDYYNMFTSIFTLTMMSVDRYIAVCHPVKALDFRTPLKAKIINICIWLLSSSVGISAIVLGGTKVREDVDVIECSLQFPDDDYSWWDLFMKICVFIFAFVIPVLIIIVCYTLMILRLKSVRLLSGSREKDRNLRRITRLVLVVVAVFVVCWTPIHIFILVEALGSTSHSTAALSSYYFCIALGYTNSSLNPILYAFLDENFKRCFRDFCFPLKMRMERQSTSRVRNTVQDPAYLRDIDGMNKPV
# [4] = molecular target: Mu-type opioid receptor (Homo sapiens, UniProt P35372); assay: SAR Analysis of Antagonists of the MOR Receptor using an Image-Based Assay - Set 3. [Related pubchem assays (depositor defined):AID1777, AID1785, AID1786, AID1966, AID2133, AID2136, AID2284, AID2285, AID2420]; format: functional
# Chain of Mu-type opioid receptor (P35372 whole entry): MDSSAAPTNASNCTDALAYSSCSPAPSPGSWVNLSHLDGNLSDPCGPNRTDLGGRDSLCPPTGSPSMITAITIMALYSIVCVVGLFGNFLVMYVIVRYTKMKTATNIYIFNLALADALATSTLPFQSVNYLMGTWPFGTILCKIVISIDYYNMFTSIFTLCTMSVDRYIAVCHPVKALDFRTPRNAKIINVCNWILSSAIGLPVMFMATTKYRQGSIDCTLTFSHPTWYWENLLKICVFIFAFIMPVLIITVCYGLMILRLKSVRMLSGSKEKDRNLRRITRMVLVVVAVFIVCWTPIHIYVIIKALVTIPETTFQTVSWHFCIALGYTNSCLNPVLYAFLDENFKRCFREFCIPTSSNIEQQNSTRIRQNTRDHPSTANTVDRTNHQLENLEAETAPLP
# [5] = molecular target: Delta-type opioid receptor (Homo sapiens, UniProt P41143); assay: SAR Analysis of Antagonists of the DOR Receptor using an Image-Based Assay - Set 3. [Related pubchem assays (depositor defined):AID1777, AID1785]; format: functional;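 also: U2OS cells expressing DOR1 and beta-arrestin GFP stimulated with 100 nM SNC80; imaging of GFP-tagged beta-arrestin moving into spots after receptor activation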
# Chain of Delta-type opioid receptor (P41143 whole entry): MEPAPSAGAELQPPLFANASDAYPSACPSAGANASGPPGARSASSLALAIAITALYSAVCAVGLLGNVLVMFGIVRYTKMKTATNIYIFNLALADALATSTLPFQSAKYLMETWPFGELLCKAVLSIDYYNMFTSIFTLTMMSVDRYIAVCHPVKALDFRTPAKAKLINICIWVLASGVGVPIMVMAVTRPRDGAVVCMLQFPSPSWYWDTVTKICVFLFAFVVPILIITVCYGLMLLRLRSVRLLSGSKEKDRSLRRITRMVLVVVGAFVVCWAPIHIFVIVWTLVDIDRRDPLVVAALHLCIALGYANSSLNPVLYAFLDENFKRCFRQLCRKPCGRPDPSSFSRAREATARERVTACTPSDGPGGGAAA
# [6] = molecular target: T2, Kappa-type opioid receptor; assay: SAR analysis of Antagonists of the Kappa Opioid Receptor (KOR) using an Image-Based Assay - Set 3. [Related pubchem assays (depositor defined):AID1777, AID1785]; format: functional
# [7] = molecular target: CAAX prenyl protease 2 (Saccharomyces cerevisiae S288c, UniProt Q03530); format: biochemical
# Chain of CAAX prenyl protease 2 (Q03530 whole entry, the tested form may be a part): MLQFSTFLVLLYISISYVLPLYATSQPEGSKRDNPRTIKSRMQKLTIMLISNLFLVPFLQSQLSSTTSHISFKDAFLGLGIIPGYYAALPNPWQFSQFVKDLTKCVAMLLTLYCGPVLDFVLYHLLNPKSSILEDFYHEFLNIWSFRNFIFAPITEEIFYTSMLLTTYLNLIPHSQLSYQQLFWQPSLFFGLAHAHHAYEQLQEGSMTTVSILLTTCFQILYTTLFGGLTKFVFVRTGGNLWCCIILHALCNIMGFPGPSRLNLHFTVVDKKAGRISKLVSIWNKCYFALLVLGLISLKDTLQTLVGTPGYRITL
# [8] = molecular target: Perilipin-1/ABHD5 (Homo sapiens, UniProt O60240+Q8WTS1); assay: Luminescence-based biochemical high throughput dose response assay for inhibitors of the interaction of the lipase co-activator protein, abhydrolase domain containing 5 (ABHD5) with perilipin-1 (PLIN1) (2K validation set). [Related pubchem assays (depositor defined):AID493027, AID493057]
# [9] = molecular target: 1-acylglycerol-3-phosphate O-acyltransferase ABHD5/Perilipin-5 (Homo sapiens, UniProt Q00G26+Q8WTS1); assay: Luminescence-based biochemical high throughput dose response assay for inhibitors of the interaction of the lipase co-activator protein, abhydrolase domain containing 5 (ABHD5) with perilipin-5 (MLDP; PLIN5) (2K validation set). [Related pubchem assays (depositor defined):AID493035, AID493241]
# [10] = molecular target: Nonstructural protein 1 (Influenza A virus, UniProt Q194T2); format: functional, Influenza A virus (A/California/07/2009(H1N1))
# Chain of Nonstructural protein 1 (Q194T2 whole entry): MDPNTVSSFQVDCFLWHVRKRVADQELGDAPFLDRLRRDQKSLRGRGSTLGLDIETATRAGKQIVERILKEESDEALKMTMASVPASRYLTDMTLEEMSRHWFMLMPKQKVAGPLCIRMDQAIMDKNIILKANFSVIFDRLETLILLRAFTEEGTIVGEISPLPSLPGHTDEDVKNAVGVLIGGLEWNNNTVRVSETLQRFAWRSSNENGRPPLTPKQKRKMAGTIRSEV
# [11] = molecular target: T3, Hexokinase HKDC1 (Homo sapiens, UniProt Q2TB90); assay: activation of HKDC1 glucose phosphorylation – biochemical, W721R variant, dose response (AID 504730); format: functional
# T3 sequence (Q2TB90 whole entry): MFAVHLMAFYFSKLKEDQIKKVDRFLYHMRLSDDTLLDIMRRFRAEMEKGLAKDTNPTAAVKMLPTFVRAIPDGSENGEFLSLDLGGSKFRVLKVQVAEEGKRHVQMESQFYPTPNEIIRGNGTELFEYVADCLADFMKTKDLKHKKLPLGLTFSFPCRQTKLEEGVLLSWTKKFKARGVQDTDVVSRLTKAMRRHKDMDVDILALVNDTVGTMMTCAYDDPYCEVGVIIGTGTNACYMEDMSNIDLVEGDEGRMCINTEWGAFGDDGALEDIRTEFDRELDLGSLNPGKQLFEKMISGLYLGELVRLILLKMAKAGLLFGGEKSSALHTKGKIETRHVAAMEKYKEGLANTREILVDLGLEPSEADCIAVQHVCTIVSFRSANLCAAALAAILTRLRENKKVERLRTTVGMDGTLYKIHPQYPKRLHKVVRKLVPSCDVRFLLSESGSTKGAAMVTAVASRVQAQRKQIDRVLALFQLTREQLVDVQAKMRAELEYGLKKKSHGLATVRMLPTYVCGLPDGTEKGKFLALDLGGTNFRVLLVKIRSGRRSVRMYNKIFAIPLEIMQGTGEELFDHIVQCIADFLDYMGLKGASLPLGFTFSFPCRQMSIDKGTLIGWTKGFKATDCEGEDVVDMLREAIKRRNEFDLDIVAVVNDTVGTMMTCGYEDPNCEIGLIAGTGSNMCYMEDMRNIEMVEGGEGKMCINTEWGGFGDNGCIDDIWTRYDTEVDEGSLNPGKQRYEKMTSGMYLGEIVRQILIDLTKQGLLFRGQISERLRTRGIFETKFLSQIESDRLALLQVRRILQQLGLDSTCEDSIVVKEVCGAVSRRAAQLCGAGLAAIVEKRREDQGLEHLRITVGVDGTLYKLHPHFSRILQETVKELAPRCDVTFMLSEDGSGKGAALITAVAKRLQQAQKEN
# [12] = molecular target: Hexokinase-1 (Homo sapiens, UniProt P19367); assay: HK1 enzyme activation by HKDC1 hits – biochemical, selectivity assay for HKDC1 activator project, dose response (AID 504762); format: functional
# Chain of Hexokinase-1 (P19367 whole entry, the tested form may be a part): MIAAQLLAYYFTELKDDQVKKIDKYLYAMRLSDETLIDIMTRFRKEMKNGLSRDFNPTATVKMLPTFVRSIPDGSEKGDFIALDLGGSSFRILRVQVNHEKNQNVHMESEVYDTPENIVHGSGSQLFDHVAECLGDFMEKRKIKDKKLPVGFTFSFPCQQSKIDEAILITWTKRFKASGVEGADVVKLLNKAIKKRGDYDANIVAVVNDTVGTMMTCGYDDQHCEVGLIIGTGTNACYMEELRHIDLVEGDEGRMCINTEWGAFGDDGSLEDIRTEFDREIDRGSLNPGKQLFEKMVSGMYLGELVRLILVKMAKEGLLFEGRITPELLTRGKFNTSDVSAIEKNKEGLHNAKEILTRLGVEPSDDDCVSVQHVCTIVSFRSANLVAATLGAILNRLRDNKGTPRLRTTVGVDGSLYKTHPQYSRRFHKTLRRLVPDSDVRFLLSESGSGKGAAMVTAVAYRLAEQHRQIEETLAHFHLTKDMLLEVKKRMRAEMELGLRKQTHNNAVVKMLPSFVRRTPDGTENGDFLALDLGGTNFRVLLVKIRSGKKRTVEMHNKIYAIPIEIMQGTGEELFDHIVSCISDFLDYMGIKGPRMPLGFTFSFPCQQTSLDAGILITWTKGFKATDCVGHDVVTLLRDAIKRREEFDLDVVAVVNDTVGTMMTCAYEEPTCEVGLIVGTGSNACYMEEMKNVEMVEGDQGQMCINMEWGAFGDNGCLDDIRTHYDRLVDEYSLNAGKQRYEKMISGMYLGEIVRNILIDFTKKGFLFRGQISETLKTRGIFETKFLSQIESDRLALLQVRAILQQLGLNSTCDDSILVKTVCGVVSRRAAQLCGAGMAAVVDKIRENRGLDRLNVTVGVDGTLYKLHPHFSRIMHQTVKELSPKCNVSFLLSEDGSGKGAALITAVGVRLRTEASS
# [13] = molecular target: T4, Runt-related transcription factor 1/Core-binding factor subunit beta (Homo sapiens, UniProt Q01196+Q13951); assay: disruptors of Runt domain/CBFb-SMMHC interaction – biochemical, FRET, Cerulean-Runt, Venus-CBFb-SMMHC, uHTS, […] (AID 1434); format: protein assay
# T4 sequence (Q01196 whole entry, the tested form may be a part): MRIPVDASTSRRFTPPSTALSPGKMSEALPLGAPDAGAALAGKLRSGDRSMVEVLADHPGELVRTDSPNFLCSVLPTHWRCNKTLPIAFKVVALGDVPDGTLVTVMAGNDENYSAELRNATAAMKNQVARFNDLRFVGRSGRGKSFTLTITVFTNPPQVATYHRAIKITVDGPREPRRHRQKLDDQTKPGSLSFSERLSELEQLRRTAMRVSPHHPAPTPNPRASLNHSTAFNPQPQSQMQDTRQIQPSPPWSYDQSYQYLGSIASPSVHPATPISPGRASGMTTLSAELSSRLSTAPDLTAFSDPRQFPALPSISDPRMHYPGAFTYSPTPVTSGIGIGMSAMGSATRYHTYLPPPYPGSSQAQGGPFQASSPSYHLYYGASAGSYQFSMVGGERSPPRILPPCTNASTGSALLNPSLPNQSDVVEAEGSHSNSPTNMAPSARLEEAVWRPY
# T4 sequence (Q13951 whole entry, the tested form may be a part): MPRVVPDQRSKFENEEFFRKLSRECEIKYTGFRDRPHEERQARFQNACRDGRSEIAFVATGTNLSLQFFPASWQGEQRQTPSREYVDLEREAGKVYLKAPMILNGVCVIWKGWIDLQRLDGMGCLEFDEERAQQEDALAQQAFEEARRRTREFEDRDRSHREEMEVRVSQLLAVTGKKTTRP
# [14] = molecular target: SUMO-activating enzyme (Homo sapiens, UniProt Q9UBT2); assay: blockers of UBC9-mediated SUMO conjugation – biochemical, AlphaScreen, SUMOylation inhibitor project, confirmation (AID 2018); format: functional
# Chain of SUMO-activating enzyme (Q9UBE0 whole entry, the tested form may be a part): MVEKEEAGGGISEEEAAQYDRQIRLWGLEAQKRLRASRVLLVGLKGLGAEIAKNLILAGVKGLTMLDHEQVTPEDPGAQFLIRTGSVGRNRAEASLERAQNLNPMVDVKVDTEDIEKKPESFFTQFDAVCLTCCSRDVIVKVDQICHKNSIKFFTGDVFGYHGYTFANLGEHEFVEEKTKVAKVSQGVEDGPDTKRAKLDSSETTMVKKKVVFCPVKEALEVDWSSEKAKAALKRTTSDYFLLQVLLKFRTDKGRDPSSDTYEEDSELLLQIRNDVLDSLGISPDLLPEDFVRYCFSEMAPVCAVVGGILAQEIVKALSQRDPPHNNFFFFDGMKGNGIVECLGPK
# Chain of SUMO-activating enzyme (Q9UBT2 whole entry, the tested form may be a part): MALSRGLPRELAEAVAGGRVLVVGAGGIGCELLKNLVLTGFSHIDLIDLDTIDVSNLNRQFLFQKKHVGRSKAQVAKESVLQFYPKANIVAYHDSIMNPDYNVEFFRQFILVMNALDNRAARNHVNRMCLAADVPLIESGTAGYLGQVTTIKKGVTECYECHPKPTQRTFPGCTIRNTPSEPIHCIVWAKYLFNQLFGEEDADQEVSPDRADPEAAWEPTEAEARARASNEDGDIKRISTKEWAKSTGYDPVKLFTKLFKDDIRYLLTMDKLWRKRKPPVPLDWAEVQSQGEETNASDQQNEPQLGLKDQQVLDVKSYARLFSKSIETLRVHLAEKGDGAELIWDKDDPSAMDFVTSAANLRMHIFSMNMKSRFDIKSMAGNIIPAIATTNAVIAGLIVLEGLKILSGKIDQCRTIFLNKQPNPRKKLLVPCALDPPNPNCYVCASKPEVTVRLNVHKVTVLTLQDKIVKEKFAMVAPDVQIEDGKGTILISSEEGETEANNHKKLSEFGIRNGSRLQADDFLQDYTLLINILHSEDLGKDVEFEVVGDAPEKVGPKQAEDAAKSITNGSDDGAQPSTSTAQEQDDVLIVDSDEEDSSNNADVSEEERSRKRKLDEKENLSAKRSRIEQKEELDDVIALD
# [15] = molecular target: T4, Runt-related transcription factor 1/Core-binding factor subunit beta; assay: Runt domain/CBFb-SMMHC interaction disruptors – biochemical, TR-FRET (AID 1438); format: protein assay
# [16] = molecular target: Integrin alpha-L (Mus musculus, UniProt P24063); assay: modulators of CD8 T cell-vesicle binding, dose response, powder samples, mouse 2C CD8+ cells (AID 504565); format: functional
# [17] = molecular target: Hexokinase (Trypanosoma brucei, UniProt Q38C41); assay: Confirmation assay for inhibitors of Trypanosoma brucei hexokinase 1-Analogue-first series. [Related pubchem assays (depositor defined):AID1430, AID1632, AID2516, AID2560, AID2579, AID2600, AID449725, AID492951]; format: functional
# [18] = molecular target: T5, Alkaline phosphatase, tissue-nonspecific isozyme (Homo sapiens, UniProt P05186); assay: potency against alkaline phosphatase TNAP – biochemical, luminescent, dose response, SAR follow-up (AID 1056)
# T5 sequence (P05186 whole entry): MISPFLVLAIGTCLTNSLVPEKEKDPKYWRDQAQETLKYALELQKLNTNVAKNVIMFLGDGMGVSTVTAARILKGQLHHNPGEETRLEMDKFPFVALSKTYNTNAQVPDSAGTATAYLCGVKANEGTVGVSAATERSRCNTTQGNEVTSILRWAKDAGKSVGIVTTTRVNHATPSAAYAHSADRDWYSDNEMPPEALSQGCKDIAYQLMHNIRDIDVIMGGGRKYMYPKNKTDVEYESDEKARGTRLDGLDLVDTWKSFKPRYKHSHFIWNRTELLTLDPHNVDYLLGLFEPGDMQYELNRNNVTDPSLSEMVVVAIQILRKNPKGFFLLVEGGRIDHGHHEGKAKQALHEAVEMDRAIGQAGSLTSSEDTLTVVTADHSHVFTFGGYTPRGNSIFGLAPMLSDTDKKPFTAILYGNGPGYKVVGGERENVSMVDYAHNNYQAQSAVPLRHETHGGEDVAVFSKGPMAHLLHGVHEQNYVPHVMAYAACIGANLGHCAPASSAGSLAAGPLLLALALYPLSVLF
# [19] = molecular target: Alkaline phosphatase, placental type (Homo sapiens, UniProt P05187); assay: human placental alkaline phosphatase inhibition – biochemical, luminescence, confirmation (AID 1512); format: functional
# Chain of Alkaline phosphatase, placental type (P05187 whole entry): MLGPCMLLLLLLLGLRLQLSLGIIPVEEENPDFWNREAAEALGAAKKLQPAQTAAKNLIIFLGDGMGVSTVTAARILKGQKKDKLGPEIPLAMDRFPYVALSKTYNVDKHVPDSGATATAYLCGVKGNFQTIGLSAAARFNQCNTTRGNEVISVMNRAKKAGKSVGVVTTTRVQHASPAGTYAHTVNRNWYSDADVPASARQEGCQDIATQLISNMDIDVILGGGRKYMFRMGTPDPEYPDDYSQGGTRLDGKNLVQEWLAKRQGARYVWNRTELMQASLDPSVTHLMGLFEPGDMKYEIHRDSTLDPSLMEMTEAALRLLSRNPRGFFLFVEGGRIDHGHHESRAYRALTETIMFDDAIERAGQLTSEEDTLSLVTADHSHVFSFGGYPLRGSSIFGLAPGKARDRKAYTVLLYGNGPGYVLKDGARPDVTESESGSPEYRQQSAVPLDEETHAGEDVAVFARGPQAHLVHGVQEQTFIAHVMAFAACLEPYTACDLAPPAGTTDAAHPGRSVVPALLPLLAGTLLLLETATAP
# [20] = molecular target: Prothrombin (Homo sapiens, UniProt P00734); assay: Thrombin 1536 HTS Dose Response Confirmation. [Related pubchem assays: 1046 (Thrombin 1536 HTS; hits were confirmed in this assay)]; format: functional
# [21] = molecular target: T6, Coagulation factor XII (Homo sapiens, UniProt P00748); assay: Factor XIIa Dose Response Confirmation from Single Well HTS. [Related pubchem assays (depositor defined):AID701]; format: functional
# T6 sequence (P00748 whole entry): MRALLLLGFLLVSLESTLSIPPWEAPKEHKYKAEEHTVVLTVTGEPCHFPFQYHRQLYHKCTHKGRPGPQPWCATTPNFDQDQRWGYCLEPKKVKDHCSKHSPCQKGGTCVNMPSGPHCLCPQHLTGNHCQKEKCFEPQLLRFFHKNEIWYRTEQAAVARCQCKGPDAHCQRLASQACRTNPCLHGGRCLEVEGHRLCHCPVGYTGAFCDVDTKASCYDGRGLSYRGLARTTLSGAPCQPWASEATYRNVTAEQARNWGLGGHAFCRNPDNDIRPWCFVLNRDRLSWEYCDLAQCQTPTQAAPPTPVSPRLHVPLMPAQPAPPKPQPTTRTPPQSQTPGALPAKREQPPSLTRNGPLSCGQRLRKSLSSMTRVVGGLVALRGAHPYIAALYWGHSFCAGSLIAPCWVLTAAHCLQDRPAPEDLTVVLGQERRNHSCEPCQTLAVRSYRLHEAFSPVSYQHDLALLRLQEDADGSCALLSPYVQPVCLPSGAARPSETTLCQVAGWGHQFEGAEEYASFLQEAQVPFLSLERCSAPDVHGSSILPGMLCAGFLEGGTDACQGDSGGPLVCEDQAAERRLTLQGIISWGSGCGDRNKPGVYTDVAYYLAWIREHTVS
# [22] = molecular target: T7, Protein skinhead-1 (Caenorhabditis elegans, UniProt P34707); format: functional
# T7 sequence (P34707 whole entry): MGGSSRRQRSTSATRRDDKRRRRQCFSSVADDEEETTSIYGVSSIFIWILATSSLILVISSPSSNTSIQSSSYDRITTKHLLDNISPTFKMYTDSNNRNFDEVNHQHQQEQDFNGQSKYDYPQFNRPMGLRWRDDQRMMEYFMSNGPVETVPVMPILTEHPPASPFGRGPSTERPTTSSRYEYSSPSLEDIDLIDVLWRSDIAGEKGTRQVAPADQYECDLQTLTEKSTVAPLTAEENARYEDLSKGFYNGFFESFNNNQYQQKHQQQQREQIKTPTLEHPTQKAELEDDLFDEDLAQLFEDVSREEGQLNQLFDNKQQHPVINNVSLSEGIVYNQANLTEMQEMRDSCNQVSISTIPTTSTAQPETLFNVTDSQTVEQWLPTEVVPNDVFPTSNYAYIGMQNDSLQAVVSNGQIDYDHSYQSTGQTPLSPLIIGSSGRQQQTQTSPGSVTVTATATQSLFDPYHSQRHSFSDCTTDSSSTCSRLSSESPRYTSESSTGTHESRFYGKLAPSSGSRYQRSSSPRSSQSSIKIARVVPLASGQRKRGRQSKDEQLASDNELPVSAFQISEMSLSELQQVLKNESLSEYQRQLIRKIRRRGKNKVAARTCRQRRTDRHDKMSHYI
smiles,measurement,setting,value
Cc1ccc(OCCOc2ccc(Br)cc2)c([N+](=O)[O-])n1,EC50,[1],20.7 µM (inactive) and 23.3 µM (inactive)
same,EC50,[2],> 50 µM (inactive)
CCN(CCNC(=O)c1ccc(CNS(=O)(=O)c2ccc(OC)cc2)cc1)Cc1ccccc1,IC50,[3],16.3 µM (inactive)
same,IC50,[4],12.6 µM (inactive)
same,IC50,[5],> 32 µM (inactive)
same,IC50,[6],10.8 µM (inactive)
O=C(CCNC(=O)N1CC(=O)Nc2ccccc21)NCCc1cccc(F)c1,AC50,[7],0.359 µM (active)
O=C(CN1CC[n+]2c(-c3cccs3)csc21)c1ccc(Br)cc1,IC50,[8],27.5 µM (inactive)
same,IC50,[9],14.8 µM (inactive)
S=C(NN=C(c1ccccc1)c1ccccn1)N(Cc1ccccn1)Cc1ccccn1,IC50,[10],2.59 µM (active)
same,EC50,[11],1.78 µM (active)
same,EC50,[12],> 80 µM (inactive)
N=c1c(S(=O)(=O)c2ccccc2)cc2c(=O)n3ccccc3nc2n1Cc1ccco1,IC50,[13],3.38 µM (active)
same,IC50,[14],6.01 µM (active)
same,IC50,[15],57.5 µM (inactive)
Cc1ccccc1C(=O)N1CCC(C(=O)Nc2ccc(C)c(S(=O)(=O)N3CCCCC3)c2)CC1,EC50,[16],29.1 µM (inactive)
CC(C)(C)c1ccc(C(=O)Nc2cc(Cl)ccc2-c2nnn[nH]2)cc1,IC50,[17],3.46 µM (active)
O=C(NC1(C(Cl)(Cl)Cl)Oc2ccccc2O1)OCN1C(=O)C2C=CC=CC2C1=O (configuration not stated),IC50,[18],> 100 µM (inactive)
same,IC50,[19],> 100 µM (inactive)
Cc1ccc(C(=O)n2nc(-c3cccnc3)nc2N)cc1,IC50,[20],0.543 µM (active)
same,IC50,[21],0.796 µM (active)
same,IC50,[22],> 100 µM (inactive)

# Source: ChEMBL document CHEMBL1201862, “PubChem BioAssay data set” (2004)
